US9283198B2, “Materials and methods for treating viral infections” (priority 2005, dated 2016)
Converted amounts (≈) assume the structure as drawn. Counter-ions that a name gives are not always drawn. Like-named read-outs stand apart in the source and are kept apart here.

Key:
[1] = tested on: H5N1 avian influenza viruses CV strain; assay: animal or person; assay type: in vivo, H5N1 avian influenza virus; conditions: for IC50: Influenza A virus
embryonated hen eggs = conditions: in vivo
[2] = tested on: H5N1 avian influenza virus, WV strain; conditions: in vivo, po
influenza virus = conditions: in vivo, po
[3] = H5N1, read-out: IC50 against H5N1 avian influenza virus

Row | SMILES | IC50 [1, 3] [mg/mL] | IC50 against H5N1 avian influenza virus ([1]; in vivo) [mg/mL] | LD50 of TG21 to embryonated hen eggs (embryonated hen eggs; chicken (hen) embryo) [mg/mL] | dose below which no side-effect was found (embryonated hen eggs; chicken (hen) embryo) | toxicity at high doses (embryonated hen eggs) | protection rate in mice [2] [%] | IC50 ([1]; H5N1, read-out: IC50 (drug concentration required to survive 50% embryo)) [mg/mL] | time until symptoms associated with the influenza infection had disappeared (influenza virus) [h]
1 | NCCS [TG21, Cysteamine] | 17.5 (≈ 227 mM) | 16.1 (≈ 209 mM) | 32.1 | below 12.5 mg/mL | some toxicity was detected | – | – | –
2 | CCOC(=O)C1=C[C@@H](OC(CC)CC)[C@H](NC(C)=O)[C@@H](N)C1 [TAMIFLU®, oseltamivir phosphate, reference compound] | 19.4 | – | – | – | – | 60 | 25.1 | –
3 | NCCS [cysteamine hydrochloride] | – | – | – | – | – | – | – | ≤ 24
